In patent US9981997B2, “Chemical reagents for attaching affinity molecules on surfaces” (ARIZONA BOARD OF REGENTS ON BEHALF OF ARIZONA STATE …, priority 2013, dated 2018):

Molecular target: T1, thrombin (Homo sapiens, UniProt P00734)
T1 construct: protein cognates human α-thrombin and human α5β1-integrin immobilized on mica surfaces; purchased Abeam (so in the source)
Assay: AFM recognition imaging of thrombin on mica
Type: binding
Details: conjugate on Ni-coated MacMode silicon tip; protein 50 pg/μL
Description: The AFM based recognition imaging is an effective tool for clinical diagnostics. The attachment and click chemistry of the disclosure works well in combination with the RI technique. Prior to this disclosure, the recognition imaging of clinically relevant proteins thrombin and integrin had not been reported. […] Linker 6a was tailored for RI. Its conjugate D-1a or P-1a was attached to Ni-coated MacMode tips (from Nanoworld) following the same protocol above mentioned. The protein samples (thrombin or α5β1 integrin) were deposited on mica using the same glutaraldehyde chemistry. However, the optimal protein concentration (50 pg/μL in 1×PBS buffer, pH 7.4) for the RI was […] lower than that for the force measurements, which was pre-determined by imaging the surface with bare AFM tips in the air mode, ensuring that the protein molecules were well distributed in a predefined area. For one measurement, only […] of protein sample is needed in the current setup. Thus, a few femtomoles of proteins can readily be detected by the AFM based recognition imaging. […] RI simultaneously produces both topographic and recognition images. Each bright round spot in the topographic image represents a protein molecule (thrombin in Panel A and integrin in panel D of FIG. 16). […]

## D-1a: thrombin-binding DNA aptamer 5′-GGTTGGTGTGGTTGG, 3′-thiol, joined to PEG linker 6a by Michael addition (DNA, backbone not given here; 3'-thiol joined to PEG linker 6a by Michael addition)
  recognition of thrombin (topography vs recognition image): About 77%
